In publication PMC10120310 (Cell Insight, 2022):

Assays:
[1] = system: oseltamivir-resistant strain (H1N1, H274Y); type: cell-based, H1N1 influenza virus (H274Y)
[2] = system: oseltamivir-resistant strain (H1N1, H274Y); type: cell-based, H1N1 influenza virus (H274Y); remark: listed apart in the source

**Q.** Which results are given for `CCOC(=O)C1=C[C@@H](OC(CC)CC)[C@H](NC(C)=O)[C@@H](N)C1` [OSP, oseltamivir phosphate]?
**A.** viral NP mRNA level of the resistant strain [1]: no antiviral activity; viral NP protein level of the resistant strain [2]: no antiviral activity
